“And” between values parts separate entries of the source, which are not always exact repeats. Equal values may be shown once. Inconclusive results and toxic doses are left out. Cut-off read from the data, not from the text of the source: active = T/C of 150% or more; inactive = T/C below 125%.
Tested on: L1210 leukemia ip in BDF1 mice, survival T/C
Experiment: NCI In Vivo Anticancer Drug Screen. Data for tumor model L1210 Leukemia (intraperitoneal) in B6D2F1 (BDF1) mice
Details: endpoint: mean survival time, higher = longer survival
Summary of the method: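 Transplantable tumor model; survival measured in treated vs vehicle control mice. Value = treated/control.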

[1] = dose: 100.0 mg/kg/injection, schedule: Q01DX001 (ip), vehicle: saline
[2] = dose: 200.0 mg/kg/injection, schedule: Q01DX001 (ip), vehicle: saline
[3] = dose: 400.0 mg/kg/injection, schedule: Q01DX001 (ip), vehicle: saline
[4] = dose: 50.0 mg/kg/injection, schedule: Q01DX001 (ip), vehicle: saline
[5] = dose: 100.0 mg/kg/injection, schedule: Q01DX009 (ip), vehicle: saline with Tween-80
[6] = dose: 200.0 mg/kg/injection, schedule: Q01DX009 (ip), vehicle: saline with Tween-80
[7] = dose: 100.0 mg/kg/injection, schedule: Q01DX001 (ip), vehicle: Klucel (hydroxypropylcellulose) (HPC)
[8] = dose: 100.0 mg/kg/injection, schedule: Q01DX009 (ip), vehicle: Klucel (hydroxypropylcellulose) (HPC)
[9] = dose: 200.0 mg/kg/injection, schedule: Q01DX001 (ip), vehicle: Klucel (hydroxypropylcellulose) (HPC)
[10] = dose: 200.0 mg/kg/injection, schedule: Q01DX009 (ip), vehicle: Klucel (hydroxypropylcellulose) (HPC)
[11] = dose: 400.0 mg/kg/injection, schedule: Q01DX001 (ip), vehicle: Klucel (hydroxypropylcellulose) (HPC)
[12] = dose: 400.0 mg/kg/injection, schedule: Q01DX009 (ip), vehicle: Klucel (hydroxypropylcellulose) (HPC)
[13] = dose: 100.0 mg/kg/injection, schedule: Q01DX009 (ip), vehicle: saline
[14] = dose: 100.0 mg/kg/injection, schedule: Q04DX003 (ip), vehicle: saline
[15] = dose: 200.0 mg/kg/injection, schedule: Q04DX003 (ip), vehicle: saline
[16] = dose: 400.0 mg/kg/injection, schedule: Q04DX003 (ip), vehicle: saline

Measured: T/C

CC/C(C)=C\CC/C(C)=C/COc1cccc([N+](=O)[O-])c1
inactive: dose: 50.0 mg/kg/injection, schedule: Q01DX009 (ip), vehicle: carboxymethylcellulose (CMC) 97 % of control | dose: 100.0 mg/kg/injection, schedule: Q01DX009 (ip), vehicle: carboxymethylcellulose (CMC) 92 % of control | dose: 200.0 mg/kg/injection, schedule: Q01DX009 (ip), vehicle: carboxymethylcellulose (CMC) 101 % of control

CC(N)C12CC3CC(CC(C3)C1)C2 (configuration not stated)
inactive: dose: 75.0 mg/kg/injection, schedule: Q01DX009 (ip), vehicle: saline 94 % of control

O=C(Nc1nc2ccccc2s1)C(F)(F)F
inactive: [1] 102 % of control | [2] 93 % of control | [3] 102 % of control

CNC(C#N)Cc1ccccc1 (configuration not stated)
inactive: dose: 2.5 mg/kg/injection, schedule: Q01DX009 (ip), vehicle: saline 96 % of control | dose: 5.0 mg/kg/injection, schedule: Q01DX009 (ip), vehicle: saline 98 % of control | dose: 10.0 mg/kg/injection, schedule: Q01DX009 (ip), vehicle: saline 104 % of control | dose: 20.0 mg/kg/injection, schedule: Q01DX009 (ip), vehicle: saline 101 % of control

C[N+](C)(C)CCC[N+]1(C)CCC2(CCCC(C(F)(F)F)C2)CC1 (configuration not stated)
inactive: [4] 98 % of control | [1] 104 % of control | [2] 96 % of control

Cc1ccc(N=Cc2cc(Cl)ccc2O)cc1.Cc1ccc(N=Cc2cc(Cl)ccc2O)cc1.[Co]
inactive: dose: 25.0 mg/kg/injection, schedule: Q04DX003 (ip), vehicle: saline with Tween-80 94 % of control | dose: 100.0 mg/kg/injection, schedule: Q04DX003 (ip), vehicle: saline with Tween-80 116 % of control and 91 % of control

Cc1cc(=O)n2c(n1)Nc1ccccc1C2
inactive: [1] 87 % of control | [2] 93 % of control | [3] 87 % of control

CCCCOC(=O)C1=C(C(=O)OCCCC)CCCC1
inactive: [5] 98 % of control | [6] 104 % of control

O=[N+]([O-])c1cccc(/C=C\C=C\c2ccccc2)c1
inactive: [4] 100 % of control | [1] 103 % of control | [2] 103 % of control | [3] 94 % of control

Cc1ccc(-c2nnc(-c3ccccc3)n2-c2cc(C(=O)O)ccc2C)cc1
inactive: [7] 89 % of control | [8] 91 % of control | [9] 91 % of control | [10] 98 % of control | [11] 97 % of control | [12] 98 % of control

O=C(O)C1CCCCC1C(=O)N(Cc1ccccc1)Cc1ccccc1 (configuration not stated)
inactive: [8] 98 % of control | [10] 102 % of control | [12] 90 % of control

Nc1nc(N)nc(C(=O)Cc2ccccc2)n1
inactive: dose: 50.0 mg/kg/injection, schedule: Q01DX009 (ip), vehicle: saline with Tween-80 108 % of control | [5] 101 % of control | [6] 94 % of control

Cc1ccc(OCCOC(=O)COc2ccc(Cl)cc2Cl)cc1C
inactive: dose: 100.0 mg/kg/injection, schedule: Q04DX002 (ip), vehicle: Klucel (hydroxypropylcellulose) (HPC) 102 % of control | dose: 200.0 mg/kg/injection, schedule: Q04DX002 (ip), vehicle: Klucel (hydroxypropylcellulose) (HPC) 97 % of control | dose: 400.0 mg/kg/injection, schedule: Q04DX002 (ip), vehicle: Klucel (hydroxypropylcellulose) (HPC) 102 % of control

O=[N+]([O-])c1ccc(NCc2ccccc2)c2c1no[n+]2[O-]
inactive: dose: 37.5 mg/kg/injection, schedule: Q04DX003 (ip), vehicle: saline with Tween-80 100 % of control | dose: 75.0 mg/kg/injection, schedule: Q04DX003 (ip), vehicle: saline with Tween-80 106 % of control | dose: 150.0 mg/kg/injection, schedule: Q04DX003 (ip), vehicle: saline with Tween-80 100 % of control

C[N+](C)(C)CC[N+](C)(C)C
inactive: [13] 108 % of control | [14] 100 % of control | dose: 200.0 mg/kg/injection, schedule: Q01DX009 (ip), vehicle: saline 106 % of control | [15] 110 % of control | dose: 400.0 mg/kg/injection, schedule: Q01DX009 (ip), vehicle: saline 100 % of control | [16] 97 % of control

O=C(c1ccccc1)c1[nH]c2ccccc2c1-c1ccccc1
inactive: dose: 100.0 mg/kg/injection, schedule: Q04DX002 (ip), vehicle: saline with Tween-80 103 % of control | dose: 200.0 mg/kg/injection, schedule: Q04DX002 (ip), vehicle: saline with Tween-80 107 % of control | dose: 400.0 mg/kg/injection, schedule: Q04DX002 (ip), vehicle: saline with Tween-80 100 % of control

CN(C)C(CCc1ccccc1)C(=O)O (configuration not stated)
inactive: dose: 100.0 mg/kg/injection, schedule: Q01DX009 (ip), vehicle: saline sonified 102 % of control | [14] 102 % of control | dose: 200.0 mg/kg/injection, schedule: Q01DX009 (ip), vehicle: saline sonified 95 % of control | [15] 109 % of control | dose: 400.0 mg/kg/injection, schedule: Q01DX009 (ip), vehicle: saline sonified 101 % of control | [16] 109 % of control

CN(c1ccccc1)S(=O)(=O)c1ccc(N)cc1
inactive: [7] 96 % of control | [9] 104 % of control | [11] 102 % of control

CCOC(=O)C(C(=O)OCC)N1C(=O)c2ccccc2C1=O
inactive: [8] 100 % of control | dose: 100.0 mg/kg/injection, schedule: Q04DX003 (ip), vehicle: Klucel (hydroxypropylcellulose) (HPC) 106 % of control and 102 % of control | [10] 102 % of control | dose: 200.0 mg/kg/injection, schedule: Q04DX003 (ip), vehicle: Klucel (hydroxypropylcellulose) (HPC) 105 % of control and 104 % of control | [12] 102 % of control | dose: 400.0 mg/kg/injection, schedule: Q04DX003 (ip), vehicle: Klucel (hydroxypropylcellulose) (HPC) 101 % of control and 100 % of control

CCOP1(=O)OCC(C)(C)CO1
inactive: [1] 98 % of control | [2] 96 % of control | [3] 102 % of control

CO/C([O-])=N/S(=O)(=O)n1cc[n+](C)c1
inactive: dose: 75.0 mg/kg/injection, schedule: Q01DX009 (ip), vehicle: Klucel (hydroxypropylcellulose) (HPC) 98 % of control | dose: 150.0 mg/kg/injection, schedule: Q01DX009 (ip), vehicle: Klucel (hydroxypropylcellulose) (HPC) 86 % of control | dose: 300.0 mg/kg/injection, schedule: Q01DX009 (ip), vehicle: Klucel (hydroxypropylcellulose) (HPC) 95 % of control

O=C(c1ccccc1)C(c1ccccc1)C(O)(C(F)(F)F)C(F)(F)F (configuration not stated)
inactive: [5] 103 % of control | [6] 97 % of control

CC12CC3CC(C)(C1)CC(SC(=N)N)(C3)C2
inactive: dose: 10.0 mg/kg/injection, schedule: Q04DX002 (ip), vehicle: Klucel (hydroxypropylcellulose) (HPC) 97 % of control | dose: 20.0 mg/kg/injection, schedule: Q04DX002 (ip), vehicle: Klucel (hydroxypropylcellulose) (HPC) 102 % of control | dose: 40.0 mg/kg/injection, schedule: Q04DX002 (ip), vehicle: Klucel (hydroxypropylcellulose) (HPC) 105 % of control

CNCCN(C)Cc1ccccc1
inactive: dose: 25.0 mg/kg/injection, schedule: Q01DX009 (ip), vehicle: saline 101 % of control | dose: 25.0 mg/kg/injection, schedule: Q04DX003 (ip), vehicle: saline 106 % of control | dose: 50.0 mg/kg/injection, schedule: Q01DX009 (ip), vehicle: saline 97 % of control | dose: 50.0 mg/kg/injection, schedule: Q04DX003 (ip), vehicle: saline 98 % of control | [13] 98 % of control | [14] 98 % of control and 91 % of control

OCC[S+](CCO)CCO
inactive: [14] 105 % of control | [15] 102 % of control | [16] 104 % of control

Cc1cc(=O)[nH]c(O)c1C(=O)CC(=O)c1ccccc1
inactive: [1] 97 % of control | [2] 100 % of control

C=CCc1ccc(OC(=O)Nc2ccccc2C)c(OC)c1
inactive: [8] 96 % of control | [10] 95 % of control

CC(C)(C)NNC(C)(C)C
inactive: dose: 9.38 mg/kg/injection, schedule: Q01DX001 (ip), vehicle: other 102 % of control | dose: 18.75 mg/kg/injection, schedule: Q01DX001 (ip), vehicle: other 96 % of control | dose: 37.5 mg/kg/injection, schedule: Q01DX001 (ip), vehicle: other 96 % of control

Cc1nc(Br)c([N+](=O)[O-])[nH]1
inactive: dose: 100.0 mg/kg/injection, schedule: Q01DX001 (ip), vehicle: saline with Tween-80 95 % of control | dose: 200.0 mg/kg/injection, schedule: Q01DX001 (ip), vehicle: saline with Tween-80 114 % of control | dose: 400.0 mg/kg/injection, schedule: Q01DX001 (ip), vehicle: saline with Tween-80 97 % of control
